Measurements taken from patent publication US5187165A, “Memory enhancing and analgesic 1,2,3a,8,8a-hexahydro-3a,8(and 1,3a,8)-di(and tri)methylpyrrolo[2,3-b]indoles” (priority 1988, dated 1993).
Where two headings read alike, the source gives them in different places.

Columns and labels:
[1] = molecular target: T1, acetylcholinesterase (Brain AChE) (Rattus norvegicus, UniProt P37136); test: In Vitro Inhibition of Acetylcholinesterase Activity in Rat Striatum; format: biochemical
T1 construct: corpora striata dissected free, weighed and homogenized in 19 volumes; from tissue; host or cells: corpora striata of male Wistar rats, crude homogenate in phosphate buffer
T1 sequence (P37136 32-614): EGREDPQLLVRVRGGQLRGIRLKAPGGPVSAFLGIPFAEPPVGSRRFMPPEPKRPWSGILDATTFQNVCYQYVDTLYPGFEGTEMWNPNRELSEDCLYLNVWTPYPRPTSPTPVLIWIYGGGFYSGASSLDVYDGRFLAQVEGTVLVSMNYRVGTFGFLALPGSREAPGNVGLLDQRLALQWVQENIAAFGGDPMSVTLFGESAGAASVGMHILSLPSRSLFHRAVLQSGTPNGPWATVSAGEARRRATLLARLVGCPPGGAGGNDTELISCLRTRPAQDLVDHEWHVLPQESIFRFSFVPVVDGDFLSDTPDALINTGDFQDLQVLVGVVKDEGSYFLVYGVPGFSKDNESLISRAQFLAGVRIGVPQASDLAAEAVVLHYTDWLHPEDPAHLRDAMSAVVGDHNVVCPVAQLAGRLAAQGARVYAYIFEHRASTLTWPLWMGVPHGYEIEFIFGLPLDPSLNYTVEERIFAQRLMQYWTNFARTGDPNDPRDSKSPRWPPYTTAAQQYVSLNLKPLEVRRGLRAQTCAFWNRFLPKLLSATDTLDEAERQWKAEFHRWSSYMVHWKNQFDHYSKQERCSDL
Source text: (§1) Cholinesterases are found throughout the body, both in the brain and in serum. However, only brain acetylcholinesterase (AChE) distribution is correlated with central cholinergic innervation. […] We have determined in vitro inhibition of acetylcholinesterase activity in rat striatum and in vitro inhibition of butrylcholinesterase activity in human serum according to the methods described below.
The method described below was used in this invention for assaying cholinesterase activity. This is a modification of the method of Ellman et al., Biochem. Pharmacol. 7, 98 (1961).
1. 0.05M Phosphate buffer, pH 7.2
(§2) (a) 9.9 mg 5,5-dithiobisnitrobenzoic acid (DTNB) (0.25 mM)
(b) 99 mg s-acetylthiocholine chloride (5 mM)
(§3) (c) q.s. to 100 ml with 0.05M phosphate buffer, pH 7.2 (reagent 1)
Male Wistar rats are decapitated, brains rapidly removed, corpora striata dissected free, weighed and homogenized in 19 volumes (approximately 7 mg protein/ml) of 0.05M phosphate buffer, pH 7.2 using a Potter-Elvehjem homogenizer. A 50 microliter aliquot of the homogenate is added to 50 microliter vehicle of various concentrations of the test drug and preincubated for 10 minutes at room temperature.
1. For routine IC50 determinations the Abbott Bichromatic Analyzer, ABA-100, is used to determine acetylcholinesterase activity.
Incubation temperature: 30° C.
Following the 10 minute preincubation of the tissue (enzyme) with the inhibitor, the samples are mixed with the substrate chromogen buffer by the ABA-100. Using the indicated instrument settings the ABA-100 automatically reads the color reaction and prints out the results in enzyme units after 15 minutes.
2. The enzyme activity can also be measured with Gilford 250 spectrophotometer. This method is used for more accurate kinetic measurments.
Reagents are added to the reference and sample side of a split curvette as follows.
The uninhibited activity of the enzyme (tissue homogenate) is first determined. Test drugs are made up in a suitable solvent and added in suitable dilutions to the buffer vehicle. The reaction rate is determined by the slope of the recorded absorbance change. The actual rate (moles/liter/min) can be calculated as described in the following formula
rate(moles/liter/min)=slope/(1.36×10^4).

[2] = molecular target: T2, butyrylcholinesterase (Serum AChE) (Homo sapiens, UniProt P06276); test: In Vitro Inhibition of Butyrylcholinesterase Activity in Human Serum; format: biochemical
T2 construct: A vial of lyophilized human serum; purchased Biodynamics, Houston, Tex; (Precilip); host or cells: lyophilized human serum, reconstituted in water; enzyme not purified
T2 sequence (P06276 29-602): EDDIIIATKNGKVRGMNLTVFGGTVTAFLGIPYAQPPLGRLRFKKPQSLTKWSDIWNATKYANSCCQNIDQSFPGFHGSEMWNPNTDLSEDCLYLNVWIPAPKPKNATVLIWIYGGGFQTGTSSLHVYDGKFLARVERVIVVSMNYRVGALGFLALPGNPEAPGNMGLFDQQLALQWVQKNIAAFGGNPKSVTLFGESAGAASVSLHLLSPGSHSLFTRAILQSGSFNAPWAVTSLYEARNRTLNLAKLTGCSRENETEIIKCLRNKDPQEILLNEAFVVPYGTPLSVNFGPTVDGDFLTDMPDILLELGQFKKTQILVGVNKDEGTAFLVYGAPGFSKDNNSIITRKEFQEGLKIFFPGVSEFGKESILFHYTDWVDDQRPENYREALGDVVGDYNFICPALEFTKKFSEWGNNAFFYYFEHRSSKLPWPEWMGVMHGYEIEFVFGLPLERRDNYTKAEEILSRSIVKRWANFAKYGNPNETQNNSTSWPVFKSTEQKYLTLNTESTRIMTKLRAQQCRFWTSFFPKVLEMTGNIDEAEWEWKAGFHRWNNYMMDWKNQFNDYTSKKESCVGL
Source text: as §1
This assay can be used in conjunction with the acetylcholinesterase assay to determine the enzyme selectivity of various chloinesterase inhibitors.
Butyrylcholinesterase (BChE), which is sometimes called pseudocholinesterase, preferentially hydrolyzes butyrylcholine. This enzyme is found in the highest amounts in serum, but its physiological role is not known.
as §2
(b) 113 mg s-butyrylthiochloine chloride (5 mM)
as §3
A vial of lyophilized human serum (Precilip, Biodynamics, Houston, Tex. is reconstituted in 3 ml of distilled water. A 10 microliter aliquot of this suspension is added to 90 microliter of the vehicle or various concentrations of the test drug and preincubated for 10 minutes at room temperature.
Substantially the same procedure is used as described above in Section C of the Procedure used for determining the inhibition of acetylcholinsterase activity.

[3] = system: scopolamine-induced memory deficit; test: Dark Avoidance Assay (scopolamine induced memory deficit reversal); format: in vivo, mice; details: Mus musculus, sc, 24 h, read-out: % of Animals with Scopolamine Induced Memory Deficit Reversal
Method: In this assay mice are tested for their ability to remember an unpleasant stimulus for a period of 24 hours. A mouse is placed in a chamber that contains a dark compartment; a strong incandescent light drives it to the dark compartment, where an electric shock is administered through metal plates on the floor. The animal is removed from the testing apparatus and tested again, 24 hours later, for the ability to remember the electric shock.
If scopolamine, an anticholinergic that is known to cause memory impairment, is administered before an animal's initial exposure to the test chamber, the animal re-enters the dark compartment shortly after being placed in the test chamber 24 hours later. This effect of scopolamine is blocked by an active test compound, resulting in a greater interval before re-entry into the dark compartment.
The results for an active compound are expressed as the percent of a group of animals in which the effect of scopolamine is blocked, as manifested by an increased interval between being placed in the test chamber and re-entering the dark compartment.

[4] = system: tetrabenazine-induced ptosis; test: Prevention of Tetrabenazine-Induced Ptosis In Mice (TBZ); format: in vivo
Source text: Tetrabenazine (TBZ) induces behavioral depression with concomitant ptosis in mice similar to reserpine. Antidepressant compounds, both monoamineoxidase inhibitors and tricyclics, are known to prevent or antagonize these effects and the degree of antagonism correlates with clinical efficacy. The prevention of TBZ-induced ptosis in mice is used as a preliminary screen for possible antidepressant activity. The method used in this invention is as follows:
Male mice weighing 20 to 30 grams are used in test groups of five subjects. All compounds are dissolved or suspended with a suitable surfactant in distilled water and administered in volumes of 10 ml/kg of body weight. TBZ solution is made from the methanesulfonate salt and the concentration is adjusted to enable administration of 60 mg/kg of base by intraperitoneal (i.p.) injection.
The pretreatment time is measured from the time of dosing to observation. Therefore, when a […] pretreat is utilized, drug and TBZ are given simultaneously. A control group receives solvent and TBZ at intervals identical to drug group. For a primary screen, the drug is administered i.p. and a group size of five is utilized. Eight animals/group are used for a dose range.
Thirty minutes after TBZ, the subjects are placed in individual plastic containers (10.5×8×6 inches) in the presence of white noise and one minute after the transfer, they are scored for ptosis on the following scale: Eyes closed=4, eyes 3/4 closed=3, eyes 1/2 closed=2, eyes 1/4 closed=1, eyes open=0. The total score for each group of five in a primary screen will, therefore, be from 0 to 20 and these scores are used as indications of drug activity.
The vehicle control group score is used as a determinant of the validity of each test. If the control score is less than 17, the results are discarded and the test repeated. The calculation of percent inhibition of ptosis is: [formula]
Linear regression analysis is used to estimate ED50 values and 95% confidence intervals.

yohimbine toxicity = test: animal or person; format: in vivo, mice; details: for ED50: Mus musculus, po, 18 h, read-out: YTP ED50
Method: The potentiation of yohimbine toxicity is considered an additional test for screening antidepressant drugs. The method used in this invention is as follows:
Male mice weighing 20 to 30 grams are used. They are housed under standard laboratory conditions with free access to food and water. Compounds are dissolved in distilled water and a suitable surfactant is added in case of poor solubility. Yohimbine hydrochloride is dissolved in distilled water as well. Both compound and yohimbine are administered in a volume of […].
Compounds and vehicle are administered orally 60 minutes prior to a sublethal dose (30 mg/kg s.c.) of yohimbine hydrochloride which alone causes death in about […] of mice (4 out of 400). Ten mice per group are then placed in plastic cages (26×10×16 cm) with food and water available ad libitum. Mortality rate is assessed 18 hours postdosing. ED50 is defined as dose of drug causing death in 5/10 mice and is calculated by probit analysis.

norepinephrine uptake [5] = format: biochemical; details: rat brain synaptosomes, 50 nM 3H-NE, 37° C., 5 min; read-out: Reuptake Inhibition of neurotransmitters, Norepinephrine
Acute toxicity (LD50) = format: in vivo; details: death within 24 hours; for LD50 at 24 h: in vivo, ip; for LD50: i.p., 1440 min
Method: LD50 is determined by the dose (mg/kg) at which 50% of the test animals die within 24 hours. In many cases this dose is an approximation.

[6] = molecular target: T2, butyrylcholinesterase (Serum AChE); details: background statement; cited from earlier work
butyrylcholinesterase = details: ex vivo; cited from earlier work
[7] = molecular target: T1, acetylcholinesterase (Brain AChE); details: background statement; brain vs serum AChE; cited from earlier work
norepinephrine uptake [8] = details: background statement; cited from earlier work

Structure (SMILES) | IC50 [1] [nM] | IC50 [2] [mM] | IC50 (norepinephrine uptake [5]) [nM] | LD50 at 24 h (Acute toxicity (LD50)) [mg/kg] | inhibition of NE uptake (norepinephrine uptake [8]) | also measured
C[C@@H](NC(=O)Oc1ccc2c(c1)[C@]1(C)CCN(C)[C@@H]1N2C)c1ccccc1 (relative stereo) [(3aS-cis)-1,2,3,3a,8,8a-Hexahydro-1,3a,8-trimethylpyrrolo[2,3-b]indol-5-ol,[(R*)-(1-phenyl)ethyl] carbamate ester] | 1200 | 0.0009 | 12000 | ~40 |  | responders at 1.25 mg/kg [3]: 67%; % Inhibition, TBZ ([4]; 20 mg/kg): 50%; ED50 (yohimbine toxicity): 16.1 mg/kg
C[C@H](NC(=O)Oc1ccc2c(c1)[C@]1(C)CCN(C)[C@@H]1N2C)c1ccccc1 (relative stereo) [(3aS-cis)-1,2,3,3a,8,8a-Hexahydro-1,3a,8-trimethylpyrrolo[2,3-b]indol-5-ol,[(S*)-(1-phenyl)ethyl] carbamate ester] | 3100 | > 1 | 2200 | > 40 |  | responders at 0.31 mg/kg [3]: 20%; % Inhibition, TBZ ([4]; 20 mg/kg): 35%; ED50 (yohimbine toxicity): 30 mg/kg; LD50 (Acute toxicity (LD50)): < 80 mg/kg
CN1CC[C@@]2(C)c3cc(OC(=O)Nc4cccc(Cl)c4)ccc3N(C)[C@@H]12 [(3aS-cis)-1,2,3,3a,8,8a-Hexahydro-1,3a,8-trimethylpyrrolo[2,3-b]indol-5-ol,3-chlorophenyl carbamate ester] | 600 | > 1 | 1800 | > 80 |  | responders at 5 mg/kg [3]: 20%; % Inhibition, TBZ ([4]; 60 mg/kg): 45%; % Inhibition, YTP (yohimbine toxicity; mice, oral, 80 mg/kg): 63%
CN1CC[C@@]2(C)c3cc(OC(=O)NC4CCCCC4)ccc3N(C)[C@@H]12 [(3aS-cis)-1,2,3,3a,8,8a-Hexahydro-1,3a,8-trimethylpyrrolo[2,3-b]indol-5-ol,cyclohexyl carbamate ester] | 900 | > 1 |  | > 5 |  | responders at 0.16 mg/kg [3]: 31%; % Inhibition, TBZ ([4]; 1.25 mg/kg): 20%; LD50 (Acute toxicity (LD50)): < 10 mg/kg
CCN(CC)C(C)CN1c2ccccc2Sc2ccccc21 (centres unmarked) [Ethopropazine] |  |  |  |  |  | selectivity of inhibition of butyrylcholinesterase [6]: selective inhibitors of butyrylcholinesterase
CC(C)NP(=O)(NC(C)C)OP(=O)(NC(C)C)NC(C)C [ISO-OMPA, tetraisopropyl pyrophosphoramide] |  |  |  |  |  | selectivity of inhibition of butyrylcholinesterase [6]: selective inhibitors of butyrylcholinesterase; cholinomimetic effects correlated with butyrylcholinesterase inhibition (butyrylcholinesterase): not correlated with any significant acute chloinomimetic effects
CNC(=O)Oc1ccc2c(c1)[C@]1(C)CCN(C)[C@@H]1N2C [Physostigmine, (3aS-cis)-1,2,3,3a,8,8a-hexahydro-1,3a,8-trimethylpyrrolo[2,3-b]indol-5-ol, methyl carbamate ester, reference compound] |  |  | > 20000 | ~3 |  | responders at 0.31 mg/kg ([3]; mice, 0.31 mg/kg s.c.): 20%; specificity of AChE inhibition [7]: an unspecific AChE inhibitor
COC(=O)[C@H]1[C@@H](OC(=O)c2ccccc2)C[C@@H]2CC[C@H]1N2C [cocaine] |  |  |  |  | potently inhibited | 
C[C@@H]1O[C@@H](O[C@H]2C[C@@H](O)[C@]3(CO)[C@H]4[C@H](O)C[C@]5(C)[C@@H](C6=CC(=O)OC6)CC[C@]5(O)[C@@H]4CC[C@]3(O)C2)[C@H](O)[C@H](O)[C@H]1O [ouabain] |  |  |  |  | inhibited | 
CC(COc1ccccc1)N(CCCl)Cc1ccccc1 (centres unmarked) [phenoxybenzamine] |  |  |  |  | inhibited | 
